According to US20240277743A1, “RESTORING PHYSIOLOGY WITH SMALL MOLECULE MIMICS OF MISSING PROTEINS” (The Board of Trustees Of The University Of Illinois, priority 2014, published 2024):

Key:
[1] = system: small molecule-rescued trk1Δtrk2Δ cells versus wild type; test: Probing sensitivities to known chemical inhibitors assay; type: cell-based, Saccharomyces cerevisiae; conditions: for sensitivity of AmB-rescued trk1Δtrk2Δ cells versus AmB-treated wild type to the inhibitor: AmB rescue, OD600 after 24 hours, FIGS. 3B-3D; for optimum rescue concentration for trk1Δtrk2Δ cells: FIG. 3E legend
Method: Probing sensitivities to known chemical inhibitors assay. Overnight cultures were grown as described in the MIC assay. Prior to harvesting cells, small molecules AmB, nystatin A1 (Riedel-de-Haen), candicidin (TOKU-E), or mepartricin (Santa Cruz Biotechnology) and chemical inhibitors nocodazole (Sigma-Aldrich), ebselen (Cayman Chemical), or bafilomycin BI (Santa Cruz Biotechnology were prepared as stock solutions in DMSO. Saturated cell cultures were centrifuged for 5 minutes at 1000×g. The supernatant was poured off, and cells were resuspended in sterile MilliQ water. Cells were centrifuged again, and supernatant was poured off. The wash step was repeated. The supernatant was poured off, and cells were resuspended in normal potassium YPAD. Cells were diluted with normal potassium YPAD to an OD600 of 0.01. Next, an appropriate volume of AmB, nystatin A1, candicidin, or mepartricin was added to give a final rescuing concentration of 125 nM, 1000 nM, 8 nM, and 8 nM, respectively. A control was prepared by adding the corresponding volume of DMSO to trk1Δtrk2Δ cells. 195 μL of WT+small molecule, 195 μL of trk1Δtrk2Δ+small molecule, and 195 μL of trk1Δtrk2Δ+DMSO were added to a 96 well plate. Next, 5 μL of DMSO or chemical inhibitor was added to each well, with each concentration tested in triplicate for both WT and trk1Δtrk2Δ . The plate was covered and incubated at 30° C. for 24 hours. A BioTek Synergy H1 Hybrid Reader was used to measure the OD600. Utilizing GraphPad PRISM, data were fitted by nonlinear regression, inhibition dose response, variable slope (four parameters) to yield EC50 values with SEM. For statistical analysis, EC50 values from the two treatment groups were compared by unpaired t-test.

[2] = system: CuFi-1 epithelial monolayers (CFTR-deficient human lung epithelia); test: Airway surface liquid (ASL) height studies by confocal fluorescence microscopy; type: cell-based
Method: Human cell lines and growth conditions. NuLi and CuFi-1 cells were cultured at the air-liquid interface as previously described, using a 1:1 mixture of DMEM: Ham's F-12 supplemented with 2% v/v Ultroser G (Crescent Chemical). Zabner, J. et al. Am. J. Physiol. Lung Cell. Mol. Physiol. 284, […]-[…] (2003). The membrane supports used were Millicell 0.4 μm PCF inserts (Millipore PIHP01250) for Ussing chamber studies, Corning Costar 0.4 μm Transwell Clear Polyester Membrane inserts (Corning 3470) for rotational mucus transport studies, and Millicell 1.0 μm PCF inserts (Millipore PIRP15R48) for ASL studies. These membranes were allowed to mature at an air-liquid interface for a minimum of 14 days to reach full differentiation. Airway surface liquid (ASL) height studies. ASL height was studied using an established fluorescent dye assay. Worthington, E. N. et al. Methods Mol. Biol. 742, 77-92 (2011); Myerburg. M. M. et al. Am. J. Respir. Cell. Mol. Biol. 42, 676-684 (2010). Mature, differentiated membranes were grown on Millicell […] polyethylene terephthalate hanging cell culture inserts. Wild type (NuLi) lung epithelia were treated with perfluorocarbon (FC-72) vehicle, and CuFi epithelia were treated with vehicle or 500 nM AmB and incubated for 24 hours at 37° ° C. On the day of imaging. 2.5 μL of a 70 kDa Texas Red-dextran conjugate (Molecular Probes) solution in PBS was added to the apical side of the membranes, followed by 100 μL of FC-770 to prevent evaporation. These were placed on 100 μL of PBS on a 10 mm glass bottom Fluorodish for imaging (World Precision Instruments). Membranes were imaged immediately after dye addition and again at 24 hours to examine dye absorption. Three Z-stack images per membrane in biological n=6 were taken on an Zeiss LSM700 confocal microscope at 40× oil immersion. These images were analyzed using ImageJ to determine the area of fluorescence in the left hand 200-micron width of each image. Images were converted to 8-bit, Gaussian Blur was applied, and made binary. The parameters for Analyze Particles were particles from 1-Infinity μm^2 in size and from 0%-100% circularity.

trk1Δtrk2Δ yeast = test: Functional complementation of a protein with a small molecule assay (rescue broth microdilution); type: cell-based, Saccharomyces cerevisiae; conditions: for restoration of trk1Δtrk2Δ cell growth by ion transporting natural products: FIG. 3A
Source text: Broth microdilution minimum inhibitory concentration (MIC) assay. The protocol for the MIC broth microdilution assay was adapted from the Clinical and Laboratory Standards Institute document M27-A2 and performed as previously described. Gray, K. C. et. al. Proc. Natl. Acad. Sci. U.S.A. 109, 2234-2239 (2012); Palacios, D. S. et al. J. Am. Chem. Soc. 129, 13804-13805 (2007).
Functional complementation of a protein with a small molecule assay. The protocol for the rescue broth microdilution assay was conducted as described in the MIC assay above with the following additions: trk1atrk2Δ yeast were grown in high potassium (100 mM) YPAD liquid media overnight and transferred to normal potassium YPAD liquid media containing vehicle or the indicated concentration of AmB.

[3] = system: AmB ion channel in trk1Δtrk2Δ cells; conditions: FIG. 2E
Method: Tetraethylammonium block assay. The protocol for the tetraethylammonium block assay was conducted as described in the functional complementation assay above with the addition of 125 nM AmB and the indicated concentration of tetraethylammonium to the normal potassium YPAD media and the indicated concentration of tetraethylammonium to the high potassium (100 mM) YPAD media.

yeast = conditions: cited from earlier work
trk1Δtrk2Δ cells = test: 86Rb+ uptake assay; type: cell-based, Saccharomyces cerevisiae; conditions: 3 μM; FIG. 2F
Method: ^86Rb^+ uptake assay. The procedure for 86Rb uptake was adapted from Mulet, J. M. et al. Mol. Cell. Biol. 19, 3328-3337 (1999). Overnight yeast cultures were grown as described above. The supernatant was poured off, and the cells were resuspended in sterile water. This wash was repeated two more times. The cells were then resuspended in 40 mL of the potassium starvation/uptake buffer (50 mM succinic acid, 2% glucose, adjusted to pH 5.5 with Tris). After 3 hour incubation in the potassium starvation buffer, cells were centrifuged and washed twice with sterile water. Cells were resuspended in 1 mL of the potassium starvation/uptake buffer. Cell concentration was determined using an INCYTO®; Neubauer disposable hemocytometer, and wild type S. cerevisiae and trk1Δtrk2Δ cells were diluted to the same cell density. 700 μL of the yeast suspension was added to a 1.5 mL Eppendorf tube. After a 5 minute pre-incubation in the potassium starvation/uptake medium, AmB or C35deOAmB was added (final concentration 3 μM) as a DMSO solution. ^86RbCl (1.1 μCi) was then added to the reaction mixtures. Reaction mixtures were vortexed to ensure a homogeneous solution. […] Moist filters were transferred to plastic vials for measuring radioactivity. Radioactivity was monitored using a Perkin Elmer Wizard automatic gamma counter. […]

Q: For `CO/C1=C\C(C)=C\[C@@H](C)[C@@H](O)[C@@H](C)C/C(C)=C/C=C/[C@H](OC)[C@@H]([C@@H](C)[C@@H](O)[C@H](C)[C@@]2(O)C[C@@H](O)[C@H](C)[C@@H](C(C)C)O2)OC1=O` [bafilomycin], which “sensitivity of AmB-rescued trk1Δtrk2Δ cells versus AmB-treated wild type to the inhibitor” value [1] is on record?
A: exceptionally sensitive

Q: With `CCCCNc1cc(C(=O)O)cc(S(N)(=O)=O)c1Oc1ccccc1` [bumetanide] as the compound, how does the “effect on AmB-mediated ASL restoration” value ([2]; basolateral addition, inhibits NKCC, FIG. 5D) read?
A: blocked

Q: For `COC(=O)Nc1nc2ccc(C(=O)c3cccs3)cc2[nH]1` [nocodazole], which “sensitivity of AmB-rescued trk1Δtrk2Δ cells versus AmB-treated wild type to the inhibitor” value [1] is on record?
A: equally sensitive

Q: For `C[C@@H]1[C@H](O)[C@@H](C)/C=C/C=C/CC/C=C/C=C/C=C/C=C/C(O[C@H]2O[C@H](C)[C@@H](O)[C@H](N)[C@@H]2O)CC2O[C@](O)(CC(O)C(O)CCC(O)CC(O)CC(O)CC(=O)O[C@H]1C)CC(O)C2C(=O)O` (stereo partly drawn) [nystatin], which “optimum rescue concentration for trk1Δtrk2Δ cells” value [1] is on record?
A: 1 µM

Q: And the “restoration of trk1Δtrk2Δ cell growth by ion transporting natural products” value (trk1Δtrk2Δ yeast)?
A: Vigorous restoration

Q: Which “effect on functional complementation observed with AmB” value ([3]; 125 nM AmB, normal potassium (10 mM KCl), dose-dependent) does the source give for `CC[N+](CC)(CC)CC` [tetraethylammonium] here?
A: inhibited the functional complementation

Q: And the “general toxicity to trk1Δtrk2Δ cells” value ([3]; permissive conditions (100 mM KCl))?
A: without causing general toxicity

Q: With C35-deoxy amphotericin B [C35deOAmB] as the compound, how does the fungicidal activity (yeast) read?
A: potent fungicidal activity

Q: And the “restoration of growth in trk1Δtrk2Δ cells” value (trk1Δtrk2Δ yeast; any tested concentration, FIG. 2D)?
A: failed to restore growth

Q: What about the “86Rb+ uptake in trk1Δtrk2Δ cells” value (trk1Δtrk2Δ cells) of the same compound?
A: no uptake

Q: And the “ASL height of CuFi-1 epithelia, compound added apically” value ([2]; 500 nM AmB, 24 hours, FIGS. 5A, 5B)?
A: no increase in ASL height

Q: For candicidin, which “optimum rescue concentration for trk1Δtrk2Δ cells” value [1] is on record?
A: 0.008 µM

Q: And the “restoration of trk1Δtrk2Δ cell growth by ion transporting natural products” value (trk1Δtrk2Δ yeast)?
A: Vigorous restoration

Q: Which results are given for mepartricin?
A: optimum rescue concentration for trk1Δtrk2Δ cells [1]: 0.008 µM; restoration of trk1Δtrk2Δ cell growth by ion transporting natural products (trk1Δtrk2Δ yeast): Vigorous restoration
